Tests used:
Type in all cases: in vivo, C57BL/6 mice
E.G7-OVA cells [1] = experiment: 51Cr release CTL assay, splenocytes of OVA-immunized mice stimulated in vitro with mitomycin C-treated E.G7-OVA cells; conditions: 1.25 μg QS-21 alone (suboptimal dose), with 25 μg OVA s.c. days 1, 15, 29; splenocytes day 42; FIG. 1
Protocol: C57BL/6 mice (5 per group, female, 8–10 weeks of age) were immunized by subcutaneous route at days 1, 15, and 29. The vaccines were 25 μg OVA antigen plus the indicated doses of adjuvant in a total volume of 0.2 ml phosphate-buffered saline. […] They were stimulated in vitro for 6 days with mitomycin C-treated E.G7-OVA cells and then used in a standard ^51Cr release CTL assay. E.G7-OVA cells (loaded with ^51Cr) were used as target cells. The background lysis of EL4 cells (not transfected by OVA) was subtracted from the lysis of E.G7-OVA cells to obtain a percent (%) antigen-specific lysis.

E.G7-OVA cells [2] = experiment: 51Cr release CTL assay, splenocytes of OVA-immunized mice stimulated in vitro with denatured OVA; conditions: 1.25 μg QS-21 alone (suboptimal dose), with 25 μg OVA, FIG. 2
Protocol: C57BL/6 mice (5 per group, female, 8–10 weeks of age) were immunized by subcutaneous route at days 1, 15, and 29. The vaccines were 25 μg OVA antigen plus the indicated doses of adjuvant in a total volume of 0.2 ml phosphate-buffered saline. […] (Weiner, et al., Proc. Natl. Acad. Sci. 94:10833 (1997).) Splenocytes were removed at day 42 for use as effector cells in the CTL assay. They were stimulated in vitro for 6 days with mitomycin C-treated E.G7-OVA cells and then used in a standard ^51Cr release CTL assay. E.G7-OVA cells (loaded with ^51Cr) were used as target cells. The background lysis of EL4 cells (not transfected by OVA) was subtracted from the lysis of E.G7-OVA cells to obtain a percent (%) antigen-specific lysis.
Splenocytes from mice immunized as described in FIG. 1 were used in a CTL assay. Splenocytes were stimulated in vitro with denatured OVA for six days prior to use in the CTL assay. The assay was carried out against E.G7-OVA cells as described in Example 1.

OVA = experiment: Serum IgG1 and IgG2a titers to OVA by EIA; conditions: sera day 42
Protocol: Serum titers to OVA were determined by EIA on sera collected on day 42 from the mice immunized as described in Example 1. IgG subclass IgG1 and IgG2a titers were determined for individual mice (5 mice per group) and are plotted as a geometric mean titer.

QS-21
antigen-specific lysis (CTL) (E.G7-OVA cells [1]): no lysis
antigen-specific lysis (CTL) (E.G7-OVA cells [2]): no lysis
OVA-specific IgG1 titer, enhancement over the unadjuvanted group (OVA; 10 μg QS-21 alone, geometric mean titer, among the highest groups, FIG. 3): ~10 fold
OVA-specific IgG2a response (OVA; any QS-21 dose used alone): not detected
